Assay results as given in US20230295118A1 (EnhancedBio Inc., priority 2022, published 2023).

Key:
Format in all cases: cell-based
CDK6 = target: T1, CDK6 (Homo sapiens, UniProt Q00534); assay: CDK6 degradation (DC50, Dmax)
T1 construct: endogenous in cells

[1] = system: mantle cell lymphoma cell (Mino or JeKo-1); assay: Antiproliferative effect, MTS cell viability assay; settings: 72 h; for IC50: mantle cell lymphoma cell (Mino or JeKo-1), MTS assay, read-out: IC50 (anti-proliferation)
Method in brief: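 Mino cells treated with compounds at 0, 0.0001, 0.001, 0.01, 0.1, 1 μM for 72 h; palbociclib and abemaciclib as positive controls. Viability by MTS, formazan absorbance read at 490 nm.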

CDK4 = target: T2, CDK4 (Homo sapiens, UniProt P11802); assay: CDK4 degradation (DC50, Dmax)
T2 construct: endogenous in cells
T2 sequence (P11802 whole entry): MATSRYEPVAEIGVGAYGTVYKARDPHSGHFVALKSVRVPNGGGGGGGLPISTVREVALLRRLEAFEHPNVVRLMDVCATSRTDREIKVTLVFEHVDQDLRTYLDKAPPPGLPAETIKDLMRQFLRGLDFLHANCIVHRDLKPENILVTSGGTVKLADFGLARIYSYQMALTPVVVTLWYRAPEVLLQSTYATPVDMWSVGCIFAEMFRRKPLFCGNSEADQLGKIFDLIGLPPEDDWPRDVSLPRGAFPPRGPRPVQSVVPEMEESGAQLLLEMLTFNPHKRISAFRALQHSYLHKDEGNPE

T1 sequence (Q00534 whole entry): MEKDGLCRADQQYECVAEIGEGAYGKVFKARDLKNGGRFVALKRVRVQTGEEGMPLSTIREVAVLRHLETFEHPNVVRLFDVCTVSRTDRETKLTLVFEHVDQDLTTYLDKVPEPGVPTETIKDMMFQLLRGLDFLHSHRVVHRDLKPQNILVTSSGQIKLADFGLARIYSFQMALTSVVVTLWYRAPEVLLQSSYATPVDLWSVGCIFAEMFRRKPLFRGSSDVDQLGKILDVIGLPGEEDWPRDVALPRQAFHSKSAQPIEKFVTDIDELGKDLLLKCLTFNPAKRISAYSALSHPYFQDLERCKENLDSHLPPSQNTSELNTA

Row | SMILES | DC50 (CDK6) | Dmax (CDK6) | IC50 [1] | DC50 (CDK4) | Dmax (CDK4) | inhibition of cell proliferation of Mino cells ([1]; Mino cells, 0-1 μM, result in words)
1 | CN(C)C(=O)c1cc2cnc(Nc3ccc(N4CCN(CCCNc5ccc6c(c5)CN(C5CCC(=O)NC5=O)C6=O)CC4)cn3)nc2n1C1CCCC1 (stereo not shown) [Compound 76, 7-cyclopentyl-2-((5-(4-(3-((2-(2,6-dioxopiperidin-3-yl)-1-oxoisoindolin-5-yl)amino)propyl)piperazin-1-yl)pyridin-2-yl)amino)-N,N-dimethyl-7H-pyrrolo[2,3-d]pyrimidine-6-carboxamide] | < 0.05 µM | > 80% | < 0.05 µM | < 0.05 µM | > 80% | dose-dependent inhibition of cell proliferation
2 | CC(=O)c1c(C)c2cnc(Nc3ccc(N4CCN(C5CCN(c6cccc7c6C(=O)N(C6CCC(=O)NC6=O)C7=O)CC5)CC4)cn3)nc2n(C2CCCC2)c1=O (stereo not shown) [Compound 77, 4-(4-(4-(6-((6-acetyl-8-cyclopentyl-5-methyl-7-oxo-7,8-dihydropyrido[2,3-d]pyrimidin-2-yl)amino)pyridin-3-yl)piperazin-1-y1)piperidin-1-yl)-2-(2,6-dioxopiperidin-3-yl) isoindoline-1,3-dione] | 0.05 to 0.2 µM | > 60% | 0.05 to 0.2 µM | 0.05 to 0.2 µM | > 60% | –
3 | CC(=O)c1c(C)c2cnc(Nc3ccc(N4CCN(CC5CCN(c6cccc7c6C(=O)N(C6CCC(=O)NC6=O)C7=O)CC5)CC4)cn3)nc2n(C2CCCC2)c1=O (stereo not shown) [Compound 78, 4-(4-((4-(6-((6-acetyl-8-cyclopentyl-5-methyl-7-oxo-7,8-dihydropyrido[2,3-d]pyrimidin-2-yl)amino)pyridin-3-yl)piperazin-1-yl)methyl)piperidin-1-yl)-2-(2,6-dioxopiperidin-3-yl) isoindoline-1,3-dione] | 0.05 to 0.2 µM | > 60% | 0.05 to 0.2 µM | 0.05 to 0.2 µM | > 60% | –
4 | CC(=O)c1c(C)c2cnc(Nc3ccc(N4CCN(C5CN(c6cccc7c6C(=O)N(C6CCC(=O)NC6=O)C7=O)C5)CC4)cn3)nc2n(C2CCCC2)c1=O (stereo not shown) [Compound 79, 4-(3-(4-(6-((6-acetyl-8-cyclopentyl-5-methyl-7-oxo-7,8-dihydropyrido[2,3-d]pyrimidin-2-yl)amino)pyridin-3-yl)piperazin-1-yl)azetidin-1-yl)-2-(2,6-dioxopiperidin-3-yl)isoindoline-1,3-dione] | 0.05 to 0.2 µM | > 60% | 0.05 to 0.2 µM | 0.05 to 0.2 µM | > 60% | –
5 | CC(=O)c1c(C)c2cnc(Nc3ccc(N4CCN(CC5CN(c6ccc7c(c6)C(=O)N(C6CCC(=O)NC6=O)C7=O)C5)CC4)cn3)nc2n(C2CCCC2)c1=O (stereo not shown) [Compound 80, 5-(3-((4-(6-((6-acetyl-8-cyclopentyl-5-methyl-7-oxo-7,8-dihydropyrido[2,3-d]pyrimidin-2-yl)amino)pyridin-3-yl)piperazin-1-yl)methyl)azetidin-1-yl)-2-(2,6-dioxopiperidin-3-yl) isoindoline-1,3-dione] | < 0.05 µM | > 80% | < 0.05 µM | < 0.05 µM | > 80% | –
6 | CC(=O)c1c(C)c2cnc(Nc3ccc(N4CCN(CC5CN(c6cccc7c6C(=O)N(C6CCC(=O)NC6=O)C7=O)C5)CC4)cn3)nc2n(C2CCCC2)c1=O (stereo not shown) [Compound 81, 4-(3-((4-(6-((6-acetyl-8-cyclopentyl-5-methyl-7-oxo-7,8-dihydropyrido[2,3-d]pyrimidin-2-yl)amino)pyridin-3-yl)piperazin-1-yl)methyl)azetidin-1-yl)-2-(2,6-dioxopiperidin-3-yl) isoindoline-1,3-dione] | 0.05 to 0.2 µM | > 80% | < 0.05 µM | 0.05 to 0.2 µM | > 80% | –
7 | CC(=O)c1c(C)c2cnc(Nc3ccc(N4CCN(C5CCN(C(=O)N6CCC(C7CCN(c8ccc9c(c8)C(=O)N(C8CCC(=O)NC8=O)C9=O)CC7)CC6)CC5)CC4)cn3)nc2n(C2CCCC2)c1=O (stereo not shown) [Compound 85, 5-(1′-(4-(4-(6-((6-acetyl-8-cyclopentyl-5-methyl-7-oxo-7,8-dihydropyrido[2,3-d]pyrimidin-2-yl)amino)pyridin-3-yl)piperazin-1-yl)piperidine-1-carbonyl)-[4,4′-bipiperidin]-1-yl)-2-(2,6-dioxopiperidin-3-yl) isoindoline-1,3-dione] | > 0.2 µM | > 60% | > 0.2 µM | > 0.2 µM | > 60% | –
8 | Cc1nc2c(F)cc(-c3nc(Nc4ccc(CN5CCN(CCNc6ccc7c(c6)C(=O)N(C6CCC(=O)NC6=O)C7)CC5)cn4)ncc3F)cc2n1C(C)C (stereo not shown) [Compound 91, 3-(6-((2-(4-((6-((5-fluoro-4-(4-fluoro-1-isopropyl-2-methyl-1H-benzo[d]imidazol-6-yl)pyrimidin-2-yl)amino)pyridin-3-yl)methyl)piperazin-1-yl)ethyl)amino)-1-oxoisoindolin-2-yl)piperidine-2,6-dione] | < 0.05 µM | > 80% | < 0.05 µM | < 0.05 µM | > 80% | –

More lines, main results first:

Row | DC50 (CDK6) | Dmax (CDK6) | IC50 [1] | DC50 (CDK4) | Dmax (CDK4) | SMILES | inhibition of cell proliferation of Mino cells ([1]; Mino cells, 0-1 μM, result in words)
9 | > 0.2 µM | > 50% | > 0.2 µM | > 0.2 µM | > 50% | CC(=O)c1c(C)c2cnc(Nc3ccc(N4CCN(CC5CCN(C(=O)N6CCC(C7CCN(c8ccc9c(c8)C(=O)N(C8CCC(=O)NC8=O)C9=O)CC7)CC6)CC5)CC4)cn3)nc2n(C2CCCC2)c1=O (stereo not shown) [Compound 82, 5-(1′-(4-((4-(6-((6-acetyl-8-cyclopentyl-5-methyl-7-oxo-7,8-dihydropyrido[2,3-d]pyrimidin-2-yl)amino)pyridin-3-yl)piperazin-1-yl)methyl)piperidine-1-carbonyl)-[4,4′-bipiperidin]-1-yl)-2-(2,6-dioxopiperidin-3-yl) isoindoline-1,3-dione] | –
10 | > 0.2 µM | > 50% | > 0.2 µM | > 0.2 µM | > 50% | CC(=O)c1c(C)c2cnc(Nc3ccc(N4CCN(CC5CCN(C(=O)N6CCC(CCN7CCN(c8ccc9c(c8)C(=O)N(C8CCC(=O)NC8=O)C9=O)CC7)CC6)CC5)CC4)cn3)nc2n(C2CCCC2)c1=O (stereo not shown) [Compound 83, 5-(4-(2-(1-(4-((4-(6-((6-acetyl-8-cyclopentyl-5-methyl-7-oxo-7,8-dihydropyrido[2,3-d]pyrimidin-2-yl)amino)pyridin-3-yl)piperazin-1-yl)methyl)piperidine-1-carbonyl)piperidin-4-yl)ethyl)piperazin-1-yl)-2-(2,6-dioxopiperidin-3-yl) isoindoline-1,3-dione] | –
11 | 0.05 to 0.2 µM | > 80% | < 0.05 µM | 0.05 to 0.2 µM | > 80% | CC(=O)c1c(C)c2cnc(Nc3ccc(N4CCN(CC5CCN(C(=O)N6CCC(CN7CCN(c8ccc9c(c8)C(=O)N(C8CCC(=O)NC8=O)C9=O)CC7)CC6)CC5)CC4)cn3)nc2n(C2CCCC2)c1=O (stereo not shown) [Compound 84, 5-(4-((1-(4-((4-(6-((6-acetyl-8-cyclopentyl-5-methyl-7-oxo-7,8-dihydropyrido[2,3-d]pyrimidin-2-yl)amino)pyridin-3-yl)piperazin-1-yl)methyl)piperidine-1-carbonyl)piperidin-4-yl)methyl)piperazin-1-yl)-2-(2,6-dioxopiperidin-3-yl) isoindoline-1,3-dione] | –
12 | 0.05 to 0.2 µM | > 60% | 0.05 to 0.2 µM | 0.05 to 0.2 µM | > 60% | CC(=O)c1c(C)c2cnc(Nc3ccc(N4CCN(C5CCN(C(=O)N6CCC(CN7CCN(c8ccc9c(c8)C(=O)N(C8CCC(=O)NC8=O)C9=O)CC7)CC6)CC5)CC4)cn3)nc2n(C2CCCC2)c1=O (stereo not shown) [Compound 86, 5-(4-((1-(4-(4-(6-((6-acetyl-8-cyclopentyl-5-methyl-7-oxo-7,8-dihydropyrido[2,3-d]pyrimidin-2-yl)amino)pyridin-3-yl)piperazin-1-yl)piperidine-1-carbonyl)piperidin-4-yl)methyl)piperazin-1-yl)-2-(2,6-dioxopiperidin-3-yl) isoindoline-1,3-dione] | –
13 | 0.05 to 0.2 µM | > 60% | 0.05 to 0.2 µM | 0.05 to 0.2 µM | > 60% | CC(=O)c1c(C)c2cnc(Nc3ccc(N4CCN(C5CCN(C(=O)N6CCC(CCN7CCN(c8ccc9c(c8)C(=O)N(C8CCC(=O)NC8=O)C9=O)CC7)CC6)CC5)CC4)cn3)nc2n(C2CCCC2)c1=O (stereo not shown) [Compound 87, 5-(4-(2-(1-(4-(4-(6-((6-acetyl-8-cyclopentyl-5-methyl-7-oxo-7,8-dihydropyrido[2,3-d]pyrimidin-2-yl)amino)pyridin-3-yl)piperazin-1-yl)piperidine-1-carbonyl)piperidin-4-yl)ethyl)piperazin-1-yl)-2-(2,6-dioxopiperidin-3-yl) isoindoline-1,3-dione] | –
14 | > 0.2 µM | > 50% | > 0.2 µM | > 0.2 µM | > 60% | CC(=O)c1c(C)c2cnc(Nc3ccc(N4CCN(C5CCN(C(=O)N6CCC(N7CCN(c8ccc9c(c8)C(=O)N(C8CCC(=O)NC8=O)C9=O)CC7)CC6)CC5)CC4)cn3)nc2n(C2CCCC2)c1=O (stereo not shown) [Compound 88, 5-(4-(1-(4-(4-(6-((6-acetyl-8-cyclopentyl-5-methyl-7-oxo-7,8-dihydropyrido[2,3-d]pyrimidin-2-yl)amino)pyridin-3-yl)piperazin-1-yl)piperidine-1-carbonyl)piperidin-4-yl)piperazin-1-yl)-2-(2,6-dioxopiperidin-3-yl) isoindoline-1,3-dione] | –
15 | > 0.2 µM | > 60% | 0.05 to 0.2 µM | 0.05 to 0.2 µM | > 60% | CC(=O)c1c(C)c2cnc(Nc3ccc(N4CCN(CC5CCN(C(=O)N6CCC(N7CCN(c8ccc9c(c8)C(=O)N(C8CCC(=O)NC8=O)C9=O)CC7)CC6)CC5)CC4)cn3)nc2n(C2CCCC2)c1=O (stereo not shown) [Compound 89, 5-(4-(1-(4-((4-(6-((6-acetyl-8-cyclopentyl-5-methyl-7-oxo-7,8-dihydropyrido[2,3-d]pyrimidin-2-yl)amino)pyridin-3-yl)piperazin-1-yl)methyl)piperidine-1-carbonyl)piperidin-4-yl)piperazin-1-yl)-2-(2,6-dioxopiperidin-3-yl)isoindoline-1,3-dione] | –
